How the values were obtained:
Assay type in all cases: in vivo
Echinochloa crus-galli [1] = assay: Test Example 1: herbicidal effect test by treatment of rice paddy soil (immediately after seeding)
How it was run: (§1)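 Puddled, fertilized (N:P:K=17:17:17) paddy soil in Wagner pots; seeds sown 0–1 cm deep, flooded to about 3 cm. Emulsifiable formulations diluted in water and dropped into the water immediately after seeding at 120 g active ingredient per 10 ares; greenhouse. Herbicidal rate from dry weight vs untreated at 14 days.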

Scirpus juncoides [2] = assay: as above
How it was run: as §1

[3] = test system: broad leaf weeds (Lindernia pyxidaria and Monochoria vaginalis); assay: as above
How it was run: as §1

Echinochloa crus-galli [4] = assay: Test Example 2: herbicidal effect test by treatment during growing period in paddy rice cultivation (seven days after seeding); details: for Herbicidal rate (%) Echinochloa crus-galli: 120 g/10a active ingredient, assessed 14 days after treatment, dry weight vs untreated area; for herbicidal rate, Echinochloa crus-galli: 120 g/10a, rated 14 days after treatment, paddy soil pots
How it was run: (§2)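 Seeds sown 0–1 cm deep in puddled, fertilised paddy soil with about 3 cm standing water in a glass greenhouse. Diluted emulsion dropped into the water seven days after seeding at 120 g active ingredient per 10 ares. Herbicidal rate (%) from mean dry weight vs untreated, duplicate, 14 days after treatment.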

Scirpus juncoides [5] = assay: as above; details: for Herbicidal rate (%) Scirpus juncoides: 120 g/10a active ingredient, assessed 14 days after treatment, dry weight vs untreated area; for herbicidal rate, Scirpus juncoides: 120 g/10a, rated 14 days after treatment, paddy soil pots
How it was run: as §2

[6] = test system: broad leaf weeds (Lindernia pyxidaria and Monochoria vaginalis); assay: as above; details: for Herbicidal rate (%) Lindernia pyxidaria / Herbicidal rate (%) Monochoria vaginalis: 120 g/10a active ingredient, assessed 14 days after treatment, dry weight vs untreated area; for herbicidal rate, Lindernia pyxidaria / herbicidal rate, Monochoria vaginalis: 120 g/10a, rated 14 days after treatment, paddy soil pots
How it was run: as §2

Amaranthus viridis = assay: Test Example 3: herbicidal effect test by treatment of dry field farming soil (one day after seeding); details: 120 g/10a active ingredient, evaluated 14 days after treatment
Description: (§3) This test was conducted in a double system per one agent solution concentration area, and the herbicidal rates (%) were determined by the following equation (Math. 1) on 14 days after the treatment with the agents. Herbicidal Rate (%)={1-(Average Dry Weight (g) of Plant of Treated Area)/(Average Dry Weight (g) of Plant of Untreated Area)}×100 [Math. 1]
(§4) Herbicidal Effect Test by Treatment of Dry Field Farming Soil
(§5) Pots with a size of 36 cm^2 were filled with a dry field farming soil (alluvium). The soil of the top layer of 1 cm and seeds of weeds, namely southern crabgrass, Echinochloa crus-galli, Chenopodium album and Amaranthus viridis, 20 seeds each, were evenly mixed, and the top layer was gently pressed. Emulsions prepared using the compounds in Table 5 below according to Formulation Example 5 were diluted with water one day after seeding, and the water-diluted agent solutions were sprayed to the soil surfaces at a ratio of 100 liters per 10 ares. The converted amount of the applied active ingredient corresponded to 120 g per 10 ares. The herbicidal effects were evaluated by the same standard as that in Test Example 1 on 14 days after the treatment with the agents. […] The compound numbers in Table 5 are the same as those in Table 1 and Table 2 above.

Chenopodium album = assay: as above; details: 120 g/10a active ingredient, evaluated 14 days after treatment
Description: as §3, §4, §5

Echinochloa crus-galli [7] = assay: as above; details: 120 g/10a active ingredient, evaluated 14 days after treatment
Description: as §3, §4, §5

southern crabgrass = assay: as above; details: 120 g/10a active ingredient, evaluated 14 days after treatment
Description: as §3, §4, §5

[8] = 120 g/10a active ingredient, dry weight vs untreated area, 14 days after treatment
[9] = Lindernia pyxidaria, 120 g/10a active ingredient, dry weight vs untreated area, 14 days after treatment
[10] = Monochoria vaginalis, 120 g/10a active ingredient, dry weight vs untreated area, 14 days after treatment
[11] = 120 g/10a active ingredient, 14 days after treatment, dry weight vs untreated area
[12] = Lindernia pyxidaria, 120 g/10a active ingredient, 14 days after treatment, dry weight vs untreated area
[13] = Monochoria vaginalis, 120 g/10a active ingredient, 14 days after treatment, dry weight vs untreated area

| Compound | Herbicidal rate (%) Echinochloa crus-galli (Echinochloa crus-galli [1]; [8]) [%] | Herbicidal rate (%) Scirpus juncoides (Scirpus juncoides [2]; [8]) [%] | Herbicidal rate (%) Lindernia pyxidaria [3, 9] [%] | Herbicidal rate (%) Monochoria vaginalis [3, 10] [%] | Herbicidal rate (%) Echinochloa crus-galli (Echinochloa crus-galli [4]) [%] | Herbicidal rate (%) Scirpus juncoides (Scirpus juncoides [5]) [%] | Herbicidal rate (%) Lindernia pyxidaria [6] [%] | Herbicidal rate (%) Monochoria vaginalis [6] [%] | herbicidal rate, Amaranthus viridis (Amaranthus viridis) [%] | herbicidal rate, Chenopodium album (Chenopodium album) [%] | herbicidal rate, Echinochloa crus-galli (Echinochloa crus-galli [7]) [%] | herbicidal rate, southern crabgrass (southern crabgrass) [%] | Herbicidal rate (%) Echinochloa crus-galli (Echinochloa crus-galli [1]; [11]) [%] | Herbicidal rate (%) Scirpus juncoides (Scirpus juncoides [2]; [11]) [%] | Herbicidal rate (%) Lindernia pyxidaria [3, 12] [%] | Herbicidal rate (%) Monochoria vaginalis [3, 13] [%] | herbicidal rate, Echinochloa crus-galli (Echinochloa crus-galli [4]) [%] | herbicidal rate, Scirpus juncoides (Scirpus juncoides [5]) [%] | herbicidal rate, Lindernia pyxidaria [6] [%] | herbicidal rate, Monochoria vaginalis [6] [%] |
| --- | --- | --- | --- | --- | --- | --- | --- | --- | --- | --- | --- | --- | --- | --- | --- | --- | --- | --- | --- | --- |
| CC(C)n1oc(=O)c(Cc2ccccc2NS(=O)(=O)C(F)(F)F)c1C1CC1 [Compound 1-83] | 90 | 90 | 100 | 70 | 40 | 60 | 40 | 40 | 40 | 40 | 50 | 40 |  |  |  |  |  |  |  |  |
| CCn1oc(=O)c(Cc2ccccc2NS(=O)(=O)C(F)(F)F)c1C [Compound 1-98] | 100 | 90 | 100 | 100 | 80 | 90 | 60 | 60 | 0 | 0 | 90 | 90 |  |  |  |  |  |  |  |  |
| Cc1c(Cc2ccccc2NS(=O)(=O)C(F)(F)F)c(=O)on1CC1CC1 [Compound 1-143] | 90 | 90 | 100 | 100 | 90 | 90 | 70 | 80 | 60 | 0 | 50 | 40 |  |  |  |  |  |  |  |  |
| Cc1c(Cc2ccccc2NS(=O)(=O)C(F)(F)F)c(=O)on1CCOCC(C)C [Compound 1-156] | 100 | 100 | 100 | 80 | 80 | 90 | 100 | 100 | 60 | 60 | 80 | 80 |  |  |  |  |  |  |  |  |
| Cc1c(Cc2ccccc2NS(=O)(=O)C(F)(F)F)c(=O)on1CCSC(C)C [Compound 1-166] | 100 | 90 | 90 | 90 | 100 | 90 | 90 | 90 | 60 | 60 | 90 | 90 |  |  |  |  |  |  |  |  |
| Cc1c(Cc2ccccc2N(S(=O)(=O)C(F)(F)F)S(=O)(=O)C(F)(F)F)c(=O)on1CC(F)(F)c1ccccc1 [Compound 1-1047] | 90 | 90 | 100 | 80 | 80 | 80 | 90 | 80 |  |  |  |  |  |  |  |  |  |  |  |  |
| Cc1c(Cc2ccccc2N(S(=O)(=O)C(F)(F)F)S(=O)(=O)C(F)(F)F)c(=O)on1Cc1cccs1 [Compound 1-1054] |  |  |  |  |  |  |  |  |  |  |  |  | 90 | 90 | 100 | 100 | 90 | 90 | 100 | 100 |
| Cc1c(Cc2ccccc2N(S(=O)(=O)C(F)(F)F)S(=O)(=O)C(F)(F)F)c(=O)on1Cc1ccsc1 [Compound 1-1055] |  |  |  |  |  |  |  |  |  |  |  |  | 60 | 90 | 100 | 100 | 80 | 80 | 40 | 60 |
| Cc1c(Cc2ccccc2N(S(=O)(=O)C(F)(F)F)S(=O)(=O)C(F)(F)F)c(=O)on1C(C)c1ccsc1 (stereo not drawn) [Compound 1-1057] |  |  |  |  |  |  |  |  |  |  |  |  | 90 | 90 | 80 | 80 | 80 | 80 | 60 | 80 |
| Cc1c(Cc2ccccc2N(S(=O)(=O)C(F)(F)F)S(=O)(=O)C(F)(F)F)c(=O)on1CCOc1ccccc1 [Compound 1-1058] |  |  |  |  |  |  |  |  |  |  |  |  | 90 | 90 | 80 | 70 | 90 | 80 | 80 | 90 |
| Cc1c(Cc2ccccc2N(S(=O)(=O)C(F)(F)F)S(=O)(=O)C(F)(F)F)c(=O)on1CCOCc1ccccc1 [Compound 1-1059] |  |  |  |  |  |  |  |  |  |  |  |  | 100 | 80 | 80 | 90 | 90 | 70 | 40 | 70 |

From patent US11109593B2, “Isoxazolin-5-one derivative and herbicide containing same as active ingredient” (HOKKO CHEMICAL INDUSTRY CO., LTD., priority 2017, dated 2021)
